Test results taken from publication PMC6058525, “A novel phenolic propanediamine moiety-based lung-targeting therapy for asthma” (Drug Delivery, 2018).
In brackets after ≈: the same amount, converted by molar mass.

Legend:
A549 cells [1] = test: Cell uptake study in A549 cells (LC-MS/MS); assay type: cell-based, human; conditions: 18.9 μM, NaN3 1 mg/mL
Protocol: The A549 cells were seeded in 6-well culture plates (5 × 10^5 cells/well). On the second day, cells were incubated with Rhein or TPD-Rhein solution at increasing concentrations (4.7, 9.3, 18.9 and 37.4 μM, respectively, equivalent to Rhein) at 37 °C for 1 h. Cells were rinsed three times with ice-cold PBS and collected for the determination of intracellular concentration. To explore the cell delivery mechanism of TPD, the cells were precubated with indicated inhibitors for 1 h and then incubated with TPD-Rhein (18.9 μM) for another 1 h. For energy depletion, cells were exposed to Rhein or TPD-Rhein (18.9 μM) for 0.5 h at 37 °C, 4 °C, or in the presence of NaN3 (1 mg/mL) for 1 h. Lysine and L-arginine were substrates of basic amino acid transporters (Zhou et al., [2016]). Pyrilamine was used to indicate pyrilamine-sensitive transporter (Okura et al., [2008]). Spermine and Spermidine were inhibitors of the alkaline polyamine transporter (Grancara et al., [2014]). […] In the end, cells were rinsed three times with ice-cold PBS and the intracellular concentrations of Rhein or TPD-Rhein were measured by LC-MS/MS. Cellular uptake was expressed as the amount (nmol/L) of Rhein or TPD-Rhein per 1 mg of total cellular protein. The total protein concentration of cell lysates was measured using the BCA protein assay kit (Pierce, Appleton, WI).

[2] = tested on: OVA-induced asthma model in rats; test: Therapeutic effect on ovalbumin-induced asthma model; assay type: in vivo, rat; conditions: OVA-challenged asthmatic rats, i.v. Rhein 4.5 mg/kg/day or TPD-Rhein 7.7 mg/kg/day
Protocol: Wistar rats were used to evaluate the efficacy of Rhein and TPD-Rhein on asthma. Forty healthy male rats (200 ± 20 g) were randomly divided into four groups (n = 10). Asthma model in rats was established according to a previously reported method with slight modifications (Lu et al., [2015]). Briefly, on day 0, rats were systemically sensitized with an intraperitoneal injection with 1 mL of 10% ovalbumin (OVA). Two weeks after the sensitization, the rats were exposed to aerosolized OVA for 30 min of cycling three times per week for 14 weeks. The concentration of OVA was increased from 2% for 8 weeks to 4% for remaining 6 weeks to maintain the asthma condition. From weeks 3–16, the OVA-sensitized rats in the treatment groups were given normal saline, Rhein, or TPD-Rhein intravenously before OVA inhalation, at doses of 4.5 mg/kg/day for Rhein and 7.7 mg/kg/day for TPD-Rhein (dose equivalent to free drug treatment), respectively. The rats in the normal group received with the same volume of normal saline instead. One day after the last ultrasonic atomization, all rats were anesthetized by 3% sodium pentobarbital solution at a dose of 45 mg/kg. Then, 0.5 mL of intracardiac blood of each rat was collected. The histamine level and Interleukin-5 (IL-5) level in the supernatant serum were determined using Rat HIS ELISA kit (R&D Company, Minneapolis, MN) and Rat IL-5 ELISA Kit (R&D Company, Minneapolis, MN) according to the manufacturer’s instructions, respectively. Lungs were removed from sacrificed rats and lavaged to determine the IL-5 level using the corresponding kit. In the end, lungs were fixed in 4% buffered formalin, paraffin embedded and sectioned for hematoxylin and eosin staining (H&E) for conventional histological analysis.

Hela cells = test: Cell uptake in Hela cells; assay type: cell-based, human
Source text: (§1) Male Wistar rats (body weight: 200 ± 20 g) were supplied by the Experimental Animal Center of Zhengzhou University (Zhengzhou, China). Rats were maintained in a germ-free environment and allowed free access to food and water for at least one week before experiments. All animal experiments were approved by the Institutional Animal Care and Ethics Committee of Zhengzhou University, according to the requirements of the National Act on the use of experimental animals (PR China). A549 cells (human pulmonary alveolar epithelial cells), L929 cells (mouse fibroblast cells), and Hela cells (human carcinoma cervical cells) were obtained from ATCC (Manassas, VA). The cells were cultured in DMEM with high glucose (GIBCO, Big Cabin, OK) supplemented with 20% fetal bovine serum and 1% penicillin/streptomycin. Routinely, cells were maintained at 37 °C in a humidified atmosphere containing 5% CO2, and the cell medium was changed every other day. The A549 cells were seeded in 6-well culture plates (5 × 10^5 cells/well). […] In the end, cells were rinsed three times with ice-cold PBS and the intracellular concentrations of Rhein or TPD-Rhein were measured by LC-MS/MS. Cellular uptake was expressed as the amount (nmol/L) of Rhein or TPD-Rhein per 1 mg of total cellular protein. The total protein concentration of cell lysates was measured using the BCA protein assay kit (Pierce, Appleton, WI).

L929 cells = test: Cell uptake in L929 cells; assay type: cell-based, mouse
Source text: as §1

[3] = Aqueous solubility in PBS; assay type: physicochemical; conditions: 25 °C, thermodynamic from solid
Protocol: The solubilities of Rhein and TPD-Rhein were determined in PBS with varying pH values (pH = 2 and 7.4) by equilibrating an excess of solid compound in 5 mL of buffer at 25 °C for 12 h. The samples were filtered through a 0.22 µm Millipore filter, diluted in methanol, and analyzed by LC-MS/MS. The chemical and enzymatic stabilities of TPD-Rhein were assessed in PBS with varying pH values (pH = 2, 4.5, 6.8, and 7.4), freshly prepared rat plasma and lung homogenates (diluted with 0.9% physiological saline) from rats at 37 °C, respectively. At predetermined time intervals, samples were immediately diluted by an equal amount of methanol to precipitate protein, vortexed for 5 min and centrifuged at 13,000 rpm for 10 min. The supernatant was then subjected to LC-MS/MS. Stability studies were performed in triplicate.

[4] = Plasma pharmacokinetics after i.v. injection; assay type: in vivo; conditions: rat, iv, rats, 10 mg/kg Rhein equivalent
Protocol: Rhein or TPD-Rhein was injected through the tail vein of rats. For each preparation and sampling time point, five rats were treated with a single dose of Rhein at the dose of 10 mg/kg or TPD-Rhein at 17.2 mg/kg (dose equivalent to 10 mg/kg Rhein), respectively. The rats were scarified at predetermined time intervals (0.083, 0.25, 0.5, 1, 2, 4, 8, 16, and 24 h) after administration. The whole blood was quickly collected into heparinized tubes and centrifuged at 5000 rpm for 5 min to obtain plasma. Then, the tissues (heart, liver, spleen, lung, kidney, and brain) were rinsed with saline, weighed and homogenized with cold physiological saline (twice the weight of tissues). For Rhein treated rats, the content of Rhein in the homogenates was measured by LC-MS/MS. For TPD-Rhein treated rats, the samples were injected to LC-MS/MS to determine the concentration of free Rhein released and TPD-Rhein, respectively. The content of TPD-Rhein in tested tissues at different time point was the sum of TPD-Rhein and free Rhein released. The biodistribution of the two drugs in each organ was normalized by the weight of the selected tissue.
The pharmacokinetic data were calculated using the DAS software version 2.0 (Mathematical Pharmacology Professional Committee of China, Shanghai, China). The relative uptake efficiency (Re) and concentration efficiency (Ce) were used to evaluate the lung-targeting properties of TPD-Rhein. The values of Re and Ce were calculated as follows: Relung=(AUC0-t, lung)TPD-Rhein/(AUC0-t, lung)Rhein Celung=(Cmax, lung)TPD-Rhein/(Cmax, lung)Rhein

A549 cells [5] = test: Cellular uptake of TPD-Rhein in the presence of transporter inhibitors; assay type: cell-based, human; conditions: A549 cells preincubated 1 h with inhibitor 189 μM, then TPD-Rhein 18.9 μM 1 h; vs control without inhibitor
Protocol: The A549 cells were seeded in 6-well culture plates (5 × 10^5 cells/well). On the second day, cells were incubated with Rhein or TPD-Rhein solution at increasing concentrations (4.7, 9.3, 18.9 and 37.4 μM, respectively, equivalent to Rhein) at 37 °C for 1 h. Cells were rinsed three times with ice-cold PBS and collected for the determination of intracellular concentration. To explore the cell delivery mechanism of TPD, the cells were precubated with indicated inhibitors for 1 h and then incubated with TPD-Rhein (18.9 μM) for another 1 h. For energy depletion, cells were exposed to Rhein or TPD-Rhein (18.9 μM) for 0.5 h at 37 °C, 4 °C, or in the presence of NaN3 (1 mg/mL) for 1 h. Lysine and L-arginine were substrates of basic amino acid transporters (Zhou et al., [2016]). Pyrilamine was used to indicate pyrilamine-sensitive transporter (Okura et al., [2008]). Spermine and Spermidine were inhibitors of the alkaline polyamine transporter (Grancara et al., [2014]). […] Choline was a substrate of choline transport system (Taguchi et al., [2014]). TPD was performed as a competitive cationic inhibitor. The inhibitor concentrations were 10-fold (189 μM) of the concentration of TPD-Rhein. In the end, cells were rinsed three times with ice-cold PBS and the intracellular concentrations of Rhein or TPD-Rhein were measured by LC-MS/MS. Cellular uptake was expressed as the amount (nmol/L) of Rhein or TPD-Rhein per 1 mg of total cellular protein. The total protein concentration of cell lysates was measured using the BCA protein assay kit (Pierce, Appleton, WI).

[6] = In vitro cytotoxicity, MTT assay; assay type: cell-based; conditions: human, A549 cells, under tested concentrations, read-out: A549 cells remaining viable
Protocol: To evaluate the in vitro cytotoxicity of Rhein and TPD-Rhein, MTT (3-(4, 5-dimethylthiazol-2-yl)-2, 5-diphenyltetrazolium bromide) assays were performed using A549 cell lines. Briefly, A549 cells were seeded in 96-well culture plates at a density of 1 × 10^4 cells/well and incubated at 37 °C for two days. On the day of administration, the cells were treated with different concentrations of Rhein solution, TPD-Rhein solution or TPD solution (dispersed in serum-free culture medium) for 4 h. An aliquot of 20 μL MTT solution (5 mg/mL) were added into each well and incubated at 37 °C for another 4 h. After that, all medium was removed and cells were rinsed with phosphate-buffered saline (PBS), and the formed dark blue formazan crystals in each well were dissolved in 150 μL DMSO. The absorbance of each individual well was read on a microplate reader (Thermo Scientific, Waltham, MA, Varioskan Flash) at 570 nm wavelength. Cells not exposed to samples were used as control (=100% viability).

O=C(O)c1cc(O)c2c(c1)C(=O)c1cccc(O)c1C2=O [Rhein, 4,5-dihydroxyanthraquinone-2-carboxylic acid]
intracellular amount at 4 °C or in the presence of NaN3 versus 37 °C (A549 cells [1]): no substantial difference | bronchoalveolar lavage fluid IL-5 level ([2]; vs asthmatic model group): no significant differences | plasma (serum) IL-5 level ([2]; vs asthmatic model group): no significant differences | lung histology (H&E) ([2]; vs asthmatic model rats): no significant improved anti-asthma efficacy | uptake compared with A549 cells (Hela cells): slight decrease | uptake compared with A549 cells (L929 cells): slight decrease | solubility at 12 h ([3]; pH 2, aqueous buffer, PBS pH 2.0, 25 °C): 3.56 ± 0.2 µg/mL (≈ 12.5 µM) | solubility at 12 h ([3]; pH 7.4, aqueous buffer, PBS pH 7.4, 25 °C): 513 ± 32 µg/mL (≈ 1800 µM) | AUC(0-t) [4]: 206 ± 10.6 µM·h | Cmax [4]: 308 ± 3.89 µM | clearance ([4]; read-out: CLZ (converted)): 2.83 mL/min/kg | Vd ([4]; read-out: VZ): 0.47 ± 0.02 L/kg

COc1ccc(CN(CCN(C)C)c2ccccn2)cc1 [pyrilamine]
effect of inhibitor on cellular uptake of TPD-Rhein (A549 cells [5]): no obvious impact

NCCCCNCCCN [spermidine]
effect of inhibitor on cellular uptake of TPD-Rhein (A549 cells [5]): no obvious impact

NCCCNCCCCNCCCN [spermine]
effect of inhibitor on cellular uptake of TPD-Rhein (A549 cells [5]): no obvious impact

C[N+](C)(C)C[C@H](O)CC(=O)[O-] [L-carnitine]
effect of inhibitor on cellular uptake of TPD-Rhein (A549 cells [5]): no obvious impact

CN(C)CCCN1c2ccccc2CCc2ccccc21 [imipramine]
effect of inhibitor on cellular uptake of TPD-Rhein (A549 cells [5]): significantly reduced

N=C(N)NCCC[C@H](N)C(=O)O [L-arginine]
effect of inhibitor on cellular uptake of TPD-Rhein (A549 cells [5]): no obvious impact

NCCCC[C@H](N)C(=O)O [L-lysine]
effect of inhibitor on cellular uptake of TPD-Rhein (A549 cells [5]): no obvious impact

C[N+](C)(C)CCO [choline]
effect of inhibitor on cellular uptake of TPD-Rhein (A549 cells [5]): no obvious impact

CC[N+](CC)(CC)CC.[Cl-] [Tetraethylammonium (TEA) chloride]
effect of inhibitor on cellular uptake of TPD-Rhein (A549 cells [5]): significantly reduced

CN(C)CCCN(C)Cc1ccc(O)cc1 [TPD, N,N,N’-trimethyl-N’-(4-hydroxyl-benzyl)-1,3-propanediamine]
viability at 4 h [6]: > 90% | effect of inhibitor on cellular uptake of TPD-Rhein (A549 cells [5]): abolish
